Test results: patent publication US20220249564A1, “PDL1 POSITIVE NK CELL CANCER TREATMENT” (City of Hope, priority 2019, published 2022)

Legend:
[1] = system: NK cells incubated with K562 cells; test: p38 inhibitors on AZ-induced PD-L1, CD107α and IFN-γ expression of NK cells; type: cell-based, human; settings: presence of K562 tumor cells, 1 μM inhibitor; for AZ-induced PD-L1 expression: FIG. 6H; for AZ-induced CD107α expression of NK cells / AZ-induced IFN-γ expression of NK cells: FIG. 6J
Experimental: (§1) FIGS. 6A-6J present data showing signaling pathways activating PD-L1^+ NK cells. […] “D1+” represents PD-L1^+ NK cells from donor 1, while “D1−” represents PD-L1^− NK cells from donor 1, each purified by FACS sorting. Similar definitions are applied to “D2+”, “D2−”, “D3+”, and “D3−”. Expression of Cd274 (PD-L1), Cd226, Tbx21, Eomes, Smad3 and Aka are highlighted by black arrows. […] The percentages of PD-L1+ NK cells were measured by flow cytometry. […] Data were generated from five (5) independent donors, and the experiment was repeated three times. […] Relative promoter activity was measured by luciferase assay after 48 hours. […] The experiments were repeated three times. […] The experiments were repeated three times.
Two paired groups were compared by paired t-test. One-way ANOVA with repeated measures or linear mixed model was used to compare three (3) or more donor-matched groups. P values were adjusted by the Holm-Sidak method.
(§2) Cells were suspended in 100 μl PBS with 2% FBS and incubated with the indicated mAb (Table 2) at room temperature for 20 mins. After washing with 2% FBS for one time and PBS for another time, cells were fixed in 1% paraformaldehyde buffer for immediate analysis by flow cytometry using a LSRII flow cytometer (BD Biosciences). Cells used for sorting were re-suspended in RPMI 1640 containing 10% FBS. For intracellular flow cytometry, cells were permeabilized and fixed using the Foxp3/Transcription Factor Fixation/Permeabilization kit (eBioscience, Cat #00-5523-00). Data were analyzed by FlowJo software.

[2] = system: PD-L1 expression on NK cells; test: PD-L1 expression on NK cells incubated with K562 cells in the presence of pathway inhibitors; type: cell-based, human; settings: inhibitor 1 μM or 10 μM, FIGS. 6B, 6C
Experimental: as §1
To investigate mechanisms by which PD-L1 is induced in NK cells by myeloid leukemia cells, an RNA microarray was performed to profile gene expression in PD-L1^+ NK cells vs PD-L1^− NK cells, both of which were FACS-purified from bulk NK cells after being co-cultured with K562 cells. […] They were subsequently incubated with K562 myeloid leukemia cells and then PD-L1 expression on NK cells was measured. […] A PD-L1 promoter was cloned 2.1 kb upstream of the transcription start site, co-transfected with genes for specific transcription factors in 293T cells, and the activity of the PD-L1 promoter was measured by luciferase assay. […]

[3] = system: PD-L1 expression on NK cells; test: PD-L1 expression of K562-pretreated NK cells after AZ (qRT-PCR, flow cytometry); type: cell-based, human; settings: time dependent
Experimental: (§3) FIGS. 3A-3D present data showing that anti-PD-L1 monoclonal antibody atezolizumab (AZ) activates PD-L1 signaling in NK cells and enhances NK cell function. […] The P values were corrected for multiple comparisons by Holm's method. […] The experiment was repeated three times with three different donors. […] NK cells were sorted and the relative levels of PD-L1 mRNA expression were measured by qRT-PCR. The experiment was repeated three times. […] Two paired groups were compared by paired t-test. One-way ANOVA with repeated measures or linear mixed model was used to compare three (3) or more donor-matched groups. P values were adjusted by the Holm-Sidak method.
as §2, with “software. […]” for “software.”

[4] = system: PD-L1-KO K562 myeloid leukemia cells; test: NSG mouse model with human primary NK cells and PD-L1-KO K562 cells; type: in vivo, NSG mice
Description: After 6 days, mice were sacrificed and NK cells were isolated and assessed for PD-L1 expression by flow cytometry. […] PBS instead of IgG1 was used as placebo because AZ lacks antibody-dependent cellular cytotoxicity activity. After 6 days (three treatments), mice were sacrificed and human NK cells were examined for their expression of granzyme B, CD107α, and IFN-γ, while the number of PD-L1-knockout K562 myeloid leukemia cells (as shown in FIG. 5C) was enumerated by flow cytometry. […] Two paired groups were compared by paired t-test. One-way ANOVA with repeated measures or linear mixed model was used to compare three (3) or more donor-matched groups. P values were adjusted by the Holm-Sidak method. Kaplan-Meier method was used to estimate survival functions and log-rank test was applied to group comparisons.
8-week old NSG mice were intravenously (i.v.) injected with PD-L1 knockout K562 myeloid leukemia cells at a concentration of 2 million cells per mouse. […] Mice in the atezolizumab (AZ)-treated or control group were simultaneously i.p-injected with 200 μg AZ in 200 μL PBS or 200 μL PBS per mouse. Cytokines and AZ were injected every other day for a total of […]. The numbers of NK cells and tumor cells were examined at day 6 post injection.

ADCC = settings: Fc domain modification; cited from earlier work
[5] = system: p38, p-ERK, p-AKT, p-mTOR in NK cells; test: Downstream kinase phosphorylation in NK cells after AZ (intracellular flow cytometry, immunoblot); type: cell-based, human; settings: NK cells with K562 cells, AZ treatment
Experimental: as §1
FIG. 13 presents data showing induction of p38-NF-κB signaling in primary human NK cells by the anti-PD-L1 antibody AZ. […] The histograms provided in the upper panel represent quantification of various phosphorylated kinases expressed in NK cells, followed by a graphical summary of the data (n=3) below each histogram. One-way ANOVA with repeated measures or linear mixed model was used to compare three (3) or more donor-matched groups and P values were adjusted by the Holm-Sidak method. ****, P<0.0001; NS=not significant.
as §2
Cells were pelleted and lysed in protein extraction reagent (Thermo Fisher, Cat. #78510) supplied with proteinase inhibitors. Standard procedures were used for immunoblotting. Primary antibodies used were PD-L1 (Cell Signaling Technology, Cat. #13684), GAPDH (Cell Signaling Technology, Cat. #2118), β-actin (Cell Signaling Technology, Cat. #4967), p-p38 (Cell Signaling Technology, Cat. #9211) and p-AKT (Cell Signaling Technology, Cat. #9271). Proteins were detected using goat anti-rabbit HRP-conjugated secondary antibodies (Cell Signaling Technology, Cat. #7074).

PD-L1+ NK cells = test: NK cell CD107α and IFN-γ expression after AZ treatment (flow cytometry); type: cell-based, human
Experimental: as §3
Peripheral blood samples from healthy donors were obtained from The American Red Cross. Human PBMCs were isolated by Percoll density gradient centrifugation. Primary human NK cells were enriched from the peripheral blood of healthy donors using an NK Cell Enrichment Kit (Miltenyi Biotec, Cat #0.130-115-818). Enriched NK cells with purity about 90% were either sorted by fluorescence-activated cell sorting (FACS) to the purity around 96% and then used or used immediately for in vitro cell culture experiments. […] All cell lines were maintained in RPMI 1640 medium supplemented with 10% FBS and 100 U/ml penicillin/streptomycin. For co-culture stimulation experiments, PBMCs, enriched NK cells, or FACS-sorted NK cells were co-incubated with various cell lines including K562, MOLM-13, AML3, RPMI 8226 or MV-4-11 at an effector/target (E/T) ratio of 10:1. […] For transwell assay experiments, 5×10^5 enriched human primary NK cells were seeded in the upper chamber of a transwell plate. The lower chamber of the transwell plate was seeded with 5×10^4 K562 myeloid leukemia cells. The transwell plate with cells was incubated at 37° C. for 20 hr.
Cells were suspended in 100 μl PBS with 2% FBS and incubated with the indicated mAb (Table 2) at room temperature for 20 mins. […] Data were analyzed by FlowJo software.

[6] = system: PD-L1 expression on expanded human primary NK cells; test: PD-L1 expression on expanded human primary NK cells with AZ; type: cell-based; settings: expanded 7 days with K562 feeder cells, with or without 5 ng/ml IL-12 and IL-18 for 20 h; FIG. 15
Experimental: Expanded human primary NK cells for 7 days with indicated medium (R10: RPMI1640+10% FBS; MACS: MACS medium+5% human serum; SCGM: SCGM medium+5% human serum) were treated with or without 5 ng/ml IL-12 and IL-18 for 20 h in the presence of AZ or not. The expression of PD-L1 were examined by flow cytometry. P values of multiple comparison were analyzed using one-way ANOVA. Multiple comparison test was adjusted by Holm-Sidak method. ****, P<0.0001.
Expanded human primary NK cells for 7 days with indicated medium (R10: RPMI1640+10% FBS; MACS: MACS medium+5% human serum; SCGM: SCGM medium+5% human serum) were treated with or without 5 ng/ml IL-12 and IL-18 for 20 h in the presence of AZ or not. The expression of PD-L1 were examined by flow cytometry (FIG. 15). PBMC from lung cancer patients were isolated and examined for PD-L1 expression by flow cytometry (FIG. 16).

[7] = system: PD-L1 expression on NK cells; test: Induction of PD-L1 expression on NK cells by NK cell-activating cytokines; type: cell-based, human; settings: alone or in combination with other cytokines, 10 ng/mL, 24 hour; FIG. 11F
Experimental: The cytotoxicity levels of total NK cells incubated with medium alone were served as control. The cytokine-treated bulk NK cells were permeabilized and gated PD-L1+ and PD-L1^− cells to measure the MFI of IFN-γ by flow cytometry assay as shown in FIG. 11D. […] Summary graph (n=3) is shown at the bottom. […] Summary graph (n=3) is shown at the bottom. Two-sample t test was used for 2-group comparisons. One-way ANOVA was used to compare three (3) or more groups and P values were adjusted by the Holm-Sidak method. **, P<0.01; ***, P<0.001; ****, P<0.0001; NS=not significant.
Peripheral blood samples from healthy donors were obtained from The American Red Cross. Human PBMCs were isolated by Percoll density gradient centrifugation. Primary human NK cells were enriched from the peripheral blood of healthy donors using an NK Cell Enrichment Kit (Miltenyi Biotec, Cat #0.130-115-818). Enriched NK cells with purity about 90% were either sorted by fluorescence-activated cell sorting (FACS) to the purity around 96% and then used or used immediately for in vitro cell culture experiments. NK cells were cultured in RPMI 1640 supplemented with 20% FBS, 100 U/ml penicillin/streptomycin, and 10 ng/ml IL-2. […]
Cells were suspended in 100 μl PBS with 2% FBS and incubated with the indicated mAb (Table 2) at room temperature for 20 mins. […] Data were analyzed by FlowJo software. […]

[8] = vs placebo (PBS), i.p. every other day, after 6 days, FIG. 5B
[9] = NK cells stimulated with PD-L1 knock-out K562 cells 20 hours, then 20 μg/mL AZ 4 hours, FIG. 3A

Oc1ccc(-c2nc(-c3ccncc3)c(-c3ccc(F)cc3)[nH]2)cc1 [SB202190]
AZ-induced PD-L1 expression [1]: reduce
AZ-induced CD107α expression of NK cells [1]: inhibited
AZ-induced IFN-γ expression of NK cells [1]: inhibited

Cc1ccc(S(=O)(=O)N[C@@H](Cc2ccccc2)C(=O)CCl)cc1 [TPCK]
PD-L1 expression on NK cells [2]: regulation role of p65 in PD-L1 expression was confirmed

atezolizumab [AZ]
PD-L1 expression of NK cells, mRNA level ([3]; NK cells pretreated with K562, 20 μg/mL AZ, FIG. 3C): further elevated
PD-L1 expression of NK cells, protein level ([3]; NK cells pretreated with K562, AZ, FIG. 3D): further elevated
NK cell expression of CD107α [4, 8]: significant increase
NK cell expression of IFN-γ [4, 8]: significant increase
NK cell expression of granzyme B [4, 8]: significant increase
tumor burden (number of PD-L1-KO K562 cells) ([4]; vs placebo-treated mice, upon sacrifice, FIG. 5C): significantly lower
ADCC effect (ADCC): absence
level of p38 ([5]; IL-2 10 ng/mL, FIG. 13, 6G): increased
level of p-ERK ([5]; FIG. 13): not increased
level of p-mTOR ([5]; FIG. 13): not increased
level of p-AKT ([5]; FIG. 13, 6G): not increased
expression of CD107a in PD-L1+ NK cells (PD-L1+ NK cells; [9]): increased
expression of IFN-γ in PD-L1+ NK cells (PD-L1+ NK cells; [9]): increased
IFN-γ production of PD-L1-transduced NK cells (PD-L1+ NK cells; lentiviral PD-L1-transduced NK cells treated with AZ, FIG. 3B): even more dramatically increased
expression of PD-L1 on expanded human primary NK cells [6]: further enhanced

recombinant IFN-γ: recombinant interferon gamma
PD-L1 expression on NK cells [7]: could not induce

Cn1ncc(Cl)c1-c1cc(C(=O)N[C@H](CN)Cc2cccc(F)c2)sc1Cl [afuresertib]
PD-L1 expression on NK cells [2]: significantly reduced

C[S+]([O-])c1ccc(-c2nc(-c3ccncc3)c(-c3ccc(F)cc3)[nH]2)cc1 (stereo not drawn) [SB203580]
AZ-induced PD-L1 expression [1]: reduce
AZ-induced CD107α expression of NK cells [1]: inhibited
AZ-induced IFN-γ expression of NK cells [1]: inhibited
